Data from patent US20140243332A1, “METHODS OF TREATING CANCERS CHARACTERIZED BY ABERRENT ROS1 ACTIVITY” (Oregon Health & Science University, priority 2013, published 2014).

Experiments:
[1] = system: FIG-ROS and ROS-1 effector pathway phosphorylation; assay: Immunoblot of FIG-ROS tumor lysates after oral gavage; format: in vivo, mice; settings: 25 mg/kg oral gavage
Experimental: FIG. 3D is an image of an immunoblot of tumor lysates probed for phosphorylated and total ROS1, phosphorylated and total Shpt, phosphorylated and total Stat3, phosphorylated and total Src as well as tubulin as a loading control.
(§1) Ba/F3 FIG-ROS, Ba/F3 SLC-ROS, HCC78 and mCC cell lines were treated with the indicated concentration of inhibitors for 1-2 hours. […] The protein content of the cell lysates was determined and lysates were either used for immunoprecipitation where indicated or extracted with SDS Sample buffer for 15 minutes at 80° C. Proteins were transferred to Immobilon-FL membranes and immunoblotted with antibodies specific for phospho-ROS1 (Cell Signaling Technology (CST) #3078), total ROS1 (CST #3266), phopsho-Shp2 (CST #3751), total Shpt (CST #3752), phospho-Stat3 (CST #9145), total Stat3 (CST #4904), phospho-Erk1/2 (CST #9101), total Erk2 (Santa Cruz #SC-1647), phospho-S6 (CST #4858), total S6 (CST #2216), phospho-Src (CST #2105), total Src (CST #2110), α-tubulin (Sigma T6199), or β-actin (Sigma A1978) as indicated. Images of the blots were generated by the LI-COR Odyssey® imaging system, following the manufacturer's protocol for immunoblot detection with use of IR-dye conjugated secondary antibodies.
Concomitant with diminished FIG-ROS activation, phosphorylation of Shpt and Stat3, but not Src is inhibited in the treated tumors.

NIH3T3 FIG-ROS cells = assay: Soft agar colony formation, NIH3T3 FIG-ROS; format: cell-based; settings: at lower doses than crizotinib
Source text: The bottom panels are bar graphs indicating the number of colonies formed from the plates depicted in the top panels. The values indicate average colony number±SEM from 4 independent wells.

Ba/F3 parental cells = assay: Cell viability (MTS) assay, Ba/F3 parental; format: cell-based; settings: Mus musculus, BaF3, read-out: IC50 (insensitive/resistant up to stated concentration)
Experimental: The parental Ba/F3 cell line was cultured in RPMI 1640 medium with 10% FBS, L-glutamine, penicillin/streptomycin and 15% WEHI-conditioned media. Ba/F3 cell lines were maintained at densities of 0.5×10^6 to 1.5×10^6 per ml of media. FIG-ROS and SLC-ROS Ba/F3 lines were created by infecting the parental Ba/F3 with retrovirus expressing either human FIG-ROS-S (indicated FIG-ROS herein) or SLC-ROS-S (indicated SLC-ROS herein). Stable transfectant lines were sorted for GFP expression on a FACS Aria® flow cytometer. Cells were counted daily using Guava ViaCount® reagent and Guava Personal Cell Analysis® flow cytometer. […] Early passage NIH3T3 cells were infected with retrovirus expressing either FIG-ROS or SLC-ROS and sorted for GFP expression as described above for Ba/F3 cells. HCC78 cells were cultured in RPMI 1640 medium with 10% FBS, L-glutamine, and penicillin/streptomycin. This media is referred to as RPMI-10% FBS herein.
[…]. The Ba/F3 parental line was also tested. (O'Dwyer M E and Druker B J, Lancet Oncology 1, 207-211 (2000); Walters D K et al, Cancer Cell 10, 65-75 (2006); and Heukamp L C et al, Science Translational Medicine 4, 141ra191 (2012); […].

FIG-ROS = FIG-ROS (Homo sapiens, UniProt P08922); assay: Immunoblot of Ba/F3 FIG-ROS lysates; format: cell-based; design: expressed in transfected cells; host or cells: Ba/F3 (A14), retroviral pMSCV-IRES-GFP; the other entry of the earlier key: GOPC (Q9HD26, Golgi-associated PDZ and coiled-coil motif-containing protein); settings: Ba/F3 FIG-ROS cells, increasing amounts, immunoblot FIG. 1C
Experimental: (§2) FIG. 1C is an image of an immunoblot of lysates of Ba/F3 FIG-ROS and Ba/F3 SLC-ROS and the indicated downstream effectors after treatment with the indicated compounds. Images shown are representative of three independent experiments.
as §1

[2] = biological target: Ba/F3 FIG-ROS G1971E cells (Homo sapiens, UniProt P08922, G1971E, cells depend on it); assay: Cell viability assay, Ba/F3 FIG-ROS G1971E; format: cell-based; settings: Table 3, Ba/F3 FIG-ROS G1971E; nM; read-out: IC50 (the source's name)
Experimental: (§3) Cell lines were distributed in 96-well plates and incubated with the indicated concentrations of inhibitor for 72 hours. […] Ba/F3 cell lines were plated at 4×10^3 cells/well. HCC78 and mCC cell lines were plated at 1.5×10^3 cells/well. All cell types were seeded in a final volume of 80 microliters. A 20 microliter volume of five-fold concentrated inhibitor media was added. Cell proliferation was measured using a […] viability assay (CellTiter96 Aqueous One® Solution; Promega). A BioTek Synergy 2® plate reader was used to read the absorbance at 490 nm at 30 minutes and 1 hour after addition of MTS. To facilitate comparison between experiments, the raw MTS absorbance of vehicle (0.1% DMSO) treated cells was set to 1 and absorbance from inhibitor treated wells was normalized to the vehicle treated value. […] Data were normalized using Microsoft Excel® and further non-linear regression curve fit analysis of the normalized data for determination of IC50 was performed using Graphpad Prism® software.
(§4) The FIG-ROS-S fusion gene was synthesized using the GeneArt® service. FIG-ROS-S is denoted as FIG-ROS herein.

[3] = biological target: Ba/F3 FIG-ROS kinase domain mutants (Homo sapiens, UniProt P08922, cells depend on it, form not given); assay: Cell viability assay, all tested Ba/F3 FIG-ROS kinase domain mutants; format: cell-based; settings: V2098I, G1971E, L1982F, C2060G, L1947R, E1935G; read-out: IC50 across all tested FIG-ROS mutants
Experimental: as §3, §4

PC9 cells = assay: Cell viability assay, PC9; format: cell-based, human; settings: PC9 cells (activated EGFR), FIG. 6B
Experimental: IC50 was determined from non-linear regression curve fit analysis of the dose response curves.

SLC-ROS = SLC-ROS (Homo sapiens, UniProt P08922); assay: Immunoblot of Ba/F3 SLC-ROS lysates; format: cell-based; design: SLC34A2 N-terminal portion, fusion partner; expressed in transfected cells; host or cells: Ba/F3 (A15), retroviral pMIG; the other entry of the earlier key: SLC34A2 (O95436, Sodium-dependent phosphate transport protein 2B); settings: Ba/F3 SLC-ROS cells, increasing amounts, immunoblot FIG. 1C
Experimental: as §2, §1

SLC-ROS, sequence (P08922 with tags, fused parts or gaps): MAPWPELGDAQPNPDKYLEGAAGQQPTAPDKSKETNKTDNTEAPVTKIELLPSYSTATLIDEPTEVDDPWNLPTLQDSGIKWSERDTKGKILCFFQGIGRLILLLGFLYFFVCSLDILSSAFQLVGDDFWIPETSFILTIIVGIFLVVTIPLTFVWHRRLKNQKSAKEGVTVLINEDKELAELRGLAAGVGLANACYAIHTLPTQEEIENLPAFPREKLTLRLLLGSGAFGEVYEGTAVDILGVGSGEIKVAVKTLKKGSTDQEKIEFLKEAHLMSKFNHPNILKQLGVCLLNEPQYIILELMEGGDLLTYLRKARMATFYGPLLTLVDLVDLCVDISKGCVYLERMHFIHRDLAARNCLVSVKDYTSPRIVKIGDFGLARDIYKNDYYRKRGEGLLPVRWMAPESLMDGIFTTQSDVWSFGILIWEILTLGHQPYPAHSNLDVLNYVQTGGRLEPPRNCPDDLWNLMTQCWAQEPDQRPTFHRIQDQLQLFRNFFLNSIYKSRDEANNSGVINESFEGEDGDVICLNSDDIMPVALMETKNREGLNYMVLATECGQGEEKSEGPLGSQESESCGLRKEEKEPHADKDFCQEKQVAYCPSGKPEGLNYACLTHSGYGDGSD
Ba/F3 FIG-ROS G1971E cells, sequence (P08922 whole entry G1971E): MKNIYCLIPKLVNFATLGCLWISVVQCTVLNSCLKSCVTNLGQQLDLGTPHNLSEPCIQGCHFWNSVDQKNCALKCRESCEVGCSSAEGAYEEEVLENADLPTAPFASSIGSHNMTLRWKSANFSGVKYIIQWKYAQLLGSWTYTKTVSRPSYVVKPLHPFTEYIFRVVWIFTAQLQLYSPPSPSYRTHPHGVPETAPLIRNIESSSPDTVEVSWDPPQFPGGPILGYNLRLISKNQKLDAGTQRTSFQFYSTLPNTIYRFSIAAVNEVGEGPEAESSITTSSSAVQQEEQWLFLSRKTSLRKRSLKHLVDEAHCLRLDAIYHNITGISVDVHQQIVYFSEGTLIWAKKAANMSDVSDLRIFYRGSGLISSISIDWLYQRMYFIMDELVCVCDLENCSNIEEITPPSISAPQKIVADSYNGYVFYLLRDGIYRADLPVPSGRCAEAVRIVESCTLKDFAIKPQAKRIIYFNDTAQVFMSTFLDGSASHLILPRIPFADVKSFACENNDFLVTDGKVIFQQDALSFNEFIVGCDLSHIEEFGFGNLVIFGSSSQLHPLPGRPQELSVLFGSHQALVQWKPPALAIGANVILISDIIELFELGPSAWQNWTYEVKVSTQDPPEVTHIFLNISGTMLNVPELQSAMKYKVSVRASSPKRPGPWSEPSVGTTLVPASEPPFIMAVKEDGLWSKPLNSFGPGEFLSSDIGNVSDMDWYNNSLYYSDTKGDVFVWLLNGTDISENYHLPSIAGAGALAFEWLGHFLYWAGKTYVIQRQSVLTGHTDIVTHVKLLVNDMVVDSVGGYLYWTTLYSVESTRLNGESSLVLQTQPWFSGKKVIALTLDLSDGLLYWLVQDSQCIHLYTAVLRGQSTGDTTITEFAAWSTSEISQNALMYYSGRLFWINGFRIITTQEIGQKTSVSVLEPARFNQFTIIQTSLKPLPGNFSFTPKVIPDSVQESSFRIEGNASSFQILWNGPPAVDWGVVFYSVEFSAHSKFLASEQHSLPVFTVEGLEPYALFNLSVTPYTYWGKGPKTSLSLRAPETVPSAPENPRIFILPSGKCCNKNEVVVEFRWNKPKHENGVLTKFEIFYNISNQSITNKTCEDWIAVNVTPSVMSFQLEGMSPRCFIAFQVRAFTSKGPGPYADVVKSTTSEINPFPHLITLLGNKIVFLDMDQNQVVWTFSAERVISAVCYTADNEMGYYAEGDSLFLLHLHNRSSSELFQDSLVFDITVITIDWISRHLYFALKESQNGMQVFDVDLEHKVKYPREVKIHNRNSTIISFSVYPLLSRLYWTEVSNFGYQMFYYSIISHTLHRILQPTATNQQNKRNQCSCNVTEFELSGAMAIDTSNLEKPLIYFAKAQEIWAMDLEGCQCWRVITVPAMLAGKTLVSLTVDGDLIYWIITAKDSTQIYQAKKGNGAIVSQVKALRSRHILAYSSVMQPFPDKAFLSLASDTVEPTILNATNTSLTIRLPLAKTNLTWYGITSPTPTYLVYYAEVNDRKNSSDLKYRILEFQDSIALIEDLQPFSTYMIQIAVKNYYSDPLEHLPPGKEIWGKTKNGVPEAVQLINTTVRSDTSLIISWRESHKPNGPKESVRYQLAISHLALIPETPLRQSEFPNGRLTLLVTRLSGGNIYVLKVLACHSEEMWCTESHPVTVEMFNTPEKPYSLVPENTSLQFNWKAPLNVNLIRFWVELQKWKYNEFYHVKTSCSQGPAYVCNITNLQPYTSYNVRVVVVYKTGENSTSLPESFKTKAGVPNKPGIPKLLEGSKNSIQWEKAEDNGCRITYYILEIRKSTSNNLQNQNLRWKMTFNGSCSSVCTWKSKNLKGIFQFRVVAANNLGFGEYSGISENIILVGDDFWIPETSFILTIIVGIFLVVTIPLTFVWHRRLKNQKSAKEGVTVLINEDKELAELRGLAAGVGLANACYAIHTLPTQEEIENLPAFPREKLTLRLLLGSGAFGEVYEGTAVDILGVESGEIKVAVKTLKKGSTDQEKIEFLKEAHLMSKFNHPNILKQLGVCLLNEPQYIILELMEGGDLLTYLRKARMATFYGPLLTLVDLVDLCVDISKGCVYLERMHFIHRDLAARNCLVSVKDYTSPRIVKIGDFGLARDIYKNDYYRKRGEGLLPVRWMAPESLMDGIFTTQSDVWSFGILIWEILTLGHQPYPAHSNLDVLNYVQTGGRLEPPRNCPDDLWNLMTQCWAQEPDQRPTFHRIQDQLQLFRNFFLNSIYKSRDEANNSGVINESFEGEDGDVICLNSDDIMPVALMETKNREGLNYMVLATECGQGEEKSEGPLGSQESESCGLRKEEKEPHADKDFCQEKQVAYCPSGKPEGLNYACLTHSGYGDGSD
FIG-ROS, sequence (P08922 with tags, fused parts or gaps): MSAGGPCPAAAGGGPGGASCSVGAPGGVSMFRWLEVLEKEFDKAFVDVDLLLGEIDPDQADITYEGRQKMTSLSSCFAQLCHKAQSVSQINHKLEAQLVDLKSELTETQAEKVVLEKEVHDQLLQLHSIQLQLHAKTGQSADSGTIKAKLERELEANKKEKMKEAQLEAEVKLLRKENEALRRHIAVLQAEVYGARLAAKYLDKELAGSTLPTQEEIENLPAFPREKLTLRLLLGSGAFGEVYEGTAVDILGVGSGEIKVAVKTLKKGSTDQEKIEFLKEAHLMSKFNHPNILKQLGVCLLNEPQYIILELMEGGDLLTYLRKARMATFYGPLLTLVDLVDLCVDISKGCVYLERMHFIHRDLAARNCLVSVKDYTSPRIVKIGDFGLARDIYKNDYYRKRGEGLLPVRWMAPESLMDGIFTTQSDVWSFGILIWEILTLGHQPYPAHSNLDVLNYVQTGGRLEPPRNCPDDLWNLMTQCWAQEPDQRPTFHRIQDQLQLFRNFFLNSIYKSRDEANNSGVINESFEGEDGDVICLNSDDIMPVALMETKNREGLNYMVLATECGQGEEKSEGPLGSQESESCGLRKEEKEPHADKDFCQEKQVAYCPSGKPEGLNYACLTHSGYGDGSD

COc1cc2c(Oc3ccc(NC(=O)C4(C(=O)Nc5ccc(F)cc5)CC4)cc3F)ccnc2cc1OCCCN1CCOCC1 [foretinib, N1′-[3-fluoro-4-[[6-methoxy-7-(3-morpholinopropoxy)-4-quinolyl]oxy]phenyl]-N1-(4-fluorophenyl)cyclopropane-1,1-dicarboxamide]
intra-tumoral phosphorylation of Shpt and Stat3 ([1]; FIG-ROS tumors): is inhibited
intra-tumoral phosphorylation of Src ([1]; FIG-ROS tumors): but not Src
intra-tumoral FIG-ROS phosphorylation ([1]; tumors harvested at 1, 2, 4 and 8 hours): Rapid and robust inhibition
anchorage-independent colony formation (NIH3T3 FIG-ROS cells): strongly suppressed
IC50 (Ba/F3 parental cells): > 2000 nM
autophosphorylation of FIG-ROS and ROS1-driven signaling (phospho-Shp2, phospho-ERK1/2) (FIG-ROS): dose dependent decrease
GI50 [2]: 8.69 nM
GI50 [3]: < 20 nM
sensitivity of cell growth (PC9 cells): relatively insensitive
autophosphorylation of SLC-ROS and ROS1-driven signaling (phospho-Shp2, phospho-ERK1/2) (SLC-ROS): dose dependent decrease
